Activity calls are given as the source filed them. No cut-off for these calls is given here.
Key:
Saccharomyces cerevisiae = assay: DNA damaging activity against yeast 1138 mutant assessed as drug level required to produce 12 mm zone of inhibition; format: functional
A2780 = assay: Cytotoxicity against human A2780 cells after 48 hrs by alamar blue assay; format: functional, cell-based

Row | SMILES | Activity (Saccharomyces cerevisiae) | Activity (A2780) | IC12 (Saccharomyces cerevisiae) [µg/mL] | IC50 (A2780; A2780, 48 h) [µg/mL]
1 | C=C[C@](C)(O)CC[C@]1(C)C2=CCC[C@](C)(C(=O)N[C@@H](C(=O)OC)c3ccccc3)[C@H]2CC[C@H]1C | inactive | inactive | – | –
2 | C=C[C@](C)(O)CC[C@]1(C)C2=CCC[C@](C)(C(=O)O)[C@H]2CC[C@H]1C | – | – | 925 | > 40
3 | C=C[C@](C)(O)CC[C@]1(C)C2=CC(=O)C[C@](C)(C(=O)O)[C@H]2CC[C@H]1C | inactive | inactive | – | –
4 | C=C[C@](C)(O)CC[C@]1(C)C2=CCC[C@](C)(C(=O)N[C@H](C(=O)OC)c3ccccc3)[C@H]2CC[C@H]1C | inactive | inactive | – | –

From ChEMBL document CHEMBL1159301, “Isolation and absolute configuration of ent-Halimane diterpenoids from Hymenaea courbaril from the Suriname rain forest” (J Nat Prod, 2002)
